From patent US20040266732A1, “Therapeutic agents, methods, and treatments” (priority 2002, published 2004)

Legend:
[1] = tested on: NCI-H226 human non-small cell lung cancer cell line; experiment: MTS assay; type: cell-based
Description: Methods The MTS assay was employed in the evaluation of these compounds. The cells were harvested, centrifuged to remove the medium, and suspended in fresh complete medium. Samples were taken to determine cell density. The cell count was determined with a Coulter Model Z cell counter and viability was measured with propidium iodine staining call by analysis on Coulter EPICS flow cytometer. The cell line was plated at 5×10^3 cells per well in complete medium. On the following day, the cells were closed with the dilutions of the compound. The plates were analyzed on Day for after initiation of treatment.
The cell line was propagated using standard tissue culture procedures and seeded in microtiter plates prior to dosing. Control groups included a mock treatment, media control, and a positive control (doxorubicin, 1 μM). For each concentration level, eight replicates were treated. The cell line was propagated under sterile conditions at 37° C. in 5% CO2 and 95% humidity. MT103 was stored at 4° C. until dissolved and diluted in complete medium.
Anti-cellular effects of the compound were assessed with the MTS dye conversion assay. MTS was purchased as a single solution, and stored at −20° C. […] The absorbance of formazan in each monolayer was measured at 490 nm on a Coulter microplate reader at four hours after addition of the MTS.

A549 (an adenocarcinoma) = experiment: Induced-tumor NOD/SCID mouse model, A549; type: in vivo, NOD/SCID mice
Description: In another experiment, NOD/SCID mice, (NOD.CB17-Prkdcscid/J) were treated over a time course with 60 mg/kg of MT103 or a sham treatment, and a different lung cancer cell line was used, A549 (an adenocarcinoma), instead of NCI-H226 (a squamous carcinoma).

A498 = experiment: NCI 60 cell-line test; type: cell-based, human; details: A498 (Renal Cancer)
Description: (§1) Methodology: The NCI conducted a test of the MT103 drug against 60 human cell lines, with a minimum of five concentrations of MT103 at 10-fold dilutions. A 48 hour continuous drug exposure was used, and a sulforhodamine B (SRB) protein assay was used to estimate cell viability and growth. The human tumor cell lines of the cancer screening panel were grown in RPMI 1640 medium containing 5% fetal bovine serum and 2 mM L-glutamine. Cells were inoculated into 96 well microtiter plates in 100 μL at plating densities ranging from 5,000 to 40,000 cells/well depending on the doubling time of individual cell lines. After cell inoculation, the microtiter plates are incubated at 37° C., 5% CO2, 95% air, and 100% relative humidity for 24 h prior to addition of experimental drugs.
(§2) After 24 h, two plates of each cell line were fixed in situ with TCA, to represent a measurement of the cell population for each cell line at the time of drug addition (Tz). MT103 was solubilized in dimethyl sulfoxide at 400-fold the desired final maximum test concentration and stored frozen prior to use. At the time of drug addition, an aliquot of frozen concentrate was thawed and diluted to twice the desired final maximum test concentration with complete medium containing 50 μg/ml gentamicin. Additional four, 10-fold or ½ log serial dilutions were made to provide a total of five drug concentrations plus control. Aliquots of 100 μl of these different drug dilutions were added to the appropriate microtiter wells already containing 100 μl of medium, resulting in the required final drug concentrations.
(§3) Following drug addition, the plates were incubated for an additional 48 h at 37° C., 5% CO2, 95% air, and 100% relative humidity. For adherent cells, the assay was terminated by the addition of cold TCA. Cells were fixed in situ by the gentle addition of 50 μl of cold 50% (w/v) TCA (final concentration, 10% TCA) and incubated for 60 minutes at 4° C. The supernatant was discarded, and the plates were washed five times with tap water and air dried. Sulforhodamine B (SRB) solution (100 μl) at 0.4% (w/v) in 1% acetic acid was added to each well, and plates were incubated for 10 minutes at room temperature. After staining, unbound dye was removed by washing five times with 1% acetic acid and the plates were air-dried. Bound stain was subsequently solubilized with 10 mM trizma base, and the absorbance was read on an automated plate reader at a wavelength of 515 nm. For suspension cells, the methodology was the same except that the assay was terminated by fixing settled cells at the bottom of the wells by gently adding 50 μl of 80% TCA (final concentration, 16% TCA). Using the seven absorbance measurements (time zero, (Tz), control growth, (C), and test growth in the presence of drug at the five concentration levels (Ti)), the percentage growth was calculated at each of the drug concentrations levels. Percentage growth inhibition was calculated as:
(§4) [(Ti-Tz)/(C-Tz)]×100 for concentrations for which Ti>/=Tz
(§5) [(Ti-Tz)/Tz]×100 for concentrations for which Ti<Tz.
(§6) Three dose response parameters were calculated for each experimental agent. Growth inhibition of 50% (GI50) was calculated from [(Ti-Tz)/(C-Tz)]×100=50, which is the drug concentration resulting in a 50% reduction in the net protein increase (as measured by SRB staining) in control cells during the drug incubation. The drug concentration resulting in total growth inhibition (TGI) was calculated from Ti=Tz. The LC50 (concentration of drug resulting in a 50% reduction in the measured protein at the end of the drug treatment as compared to that at the beginning) indicating a net loss of cells following treatment was calculated from [(Ti-Tz)/Tz]×100=−50. Values were calculated for each of these three parameters if the level of activity is reached; however, if the effect was not reached or was exceeded, the value for that parameter was expressed as greater or less than the maximum or minimum concentration tested.

BT-549 = experiment: NCI 60 cell-line test; type: cell-based, human; details: BT-549 (Breast Cancer)
Description: as §1, §2, §3, §4, §5, §6

HOP-92 = experiment: NCI 60 cell-line test; type: cell-based, human
Description: as §1, §2, §3, §4, §5, §6

HS 578T = experiment: NCI 60 cell-line test; type: cell-based, human; details: HS 578T (Breast Cancer)
Description: as §1, §2, §3, §4, §5, §6

MOLT-4 = experiment: NCI 60 cell-line test; type: cell-based, human; details: MOLT-4 (Leukemia)
Description: as §1, §2, §3, §4, §5, §6

NCI/ADR-RES = experiment: NCI 60 cell-line test; type: cell-based, human; details: NCI/ADR-RES (Breast Cancer)
Description: as §1, §2, §3, §4, §5, §6

PC-3 = experiment: NCI 60 cell-line test; type: cell-based, human; details: PC-3 (Prostate Cancer)
Description: as §1, §2, §3, §4, §5, §6

[2] = read-out: LC50 (the source's name)

Q: Which GI50 [1] does the source give for `CC1(C)C2CC[C@@]1(CS(=O)(=O)N(C1CCCCC1)C1CCCCC1)C(O)C2` (stereo partly shown) [MT103] here?
A: Its GI50 is 66 µM.

Q: And the “onset of tumor growth” value (A549 (an adenocarcinoma); 60 mg/kg versus sham)?
A: Its value is “delayed onset of tumor growth”.

Q: What about the “tumor size versus control” value (A549 (an adenocarcinoma); 60 mg/kg, t=30 days) of the same compound?
A: Its value is “significantly smaller than the control groups”.

Q: And the TGI (A498)?
A: Its TGI is 9.07E−05.

Q: And the IC50 (A498; read-out: G150)?
A: Its IC50 is 30.4 µM.

Q: And the CC50 (A498; [2])?
A: The CC50 was greater than 100 µM.

Q: And the TGI (BT-549)?
A: Its TGI is greater than 1.00E−04.

Q: What about the IC50 (BT-549; read-out: G150) of the same compound?
A: Its IC50 is 59.3 µM.

Q: What about the CC50 (BT-549; [2]) of the same compound?
A: The CC50 was greater than 100 µM.

Q: And the TGI (HOP-92; HOP-92 (Non-Small Cell Lung Cancer))?
A: Its TGI is 3.16E−05.

Q: And the IC50 (HOP-92; HOP-92 (Non-Small Cell Lung Cancer), read-out: G150)?
A: Its IC50 is 2750 nM.

Q: And the CC50 (HOP-92; HOP-92 (Non-Small Cell Lung Cancer), read-out: LC50 (the source's name))?
A: Its CC50 is greater than 100 µM.

Q: What about the “−logGI50 value” (HOP-92; HOP-92, as tested by the NCI, FIG. 1) of the same compound?
A: The value was 5.6.

Q: And the TGI (HS 578T)?
A: The TGI was greater than 1.00E−04.

Q: And the IC50 (HS 578T; read-out: G150)?
A: The IC50 was 29 µM.

Q: What about the CC50 (HS 578T; [2]) of the same compound?
A: Its CC50 is greater than 100 µM.

Q: And the TGI (MOLT-4)?
A: The TGI was greater than 1.00E−04.

Q: And the IC50 (MOLT-4; read-out: G150)?
A: Its IC50 is 20.6 µM.

Q: And the CC50 (MOLT-4; [2])?
A: Its CC50 is greater than 100 µM.

Q: What about the TGI (NCI/ADR-RES) of the same compound?
A: The TGI was greater than 1.00E−04.

Q: And the IC50 (NCI/ADR-RES; read-out: G150)?
A: Its IC50 is 34.9 µM.

Q: And the CC50 (NCI/ADR-RES; [2])?
A: The CC50 was greater than 100 µM.

Q: What about the TGI (PC-3) of the same compound?
A: Its TGI is greater than 1.00E−04.

Q: What about the IC50 (PC-3; read-out: G150) of the same compound?
A: The IC50 was 27.8 µM.

Q: And the CC50 (PC-3; [2])?
A: Its CC50 is greater than 100 µM.
